Results taken from publication PMC9437215, “Synthesis and antibacterial activity evaluation of N (7) position-modified balofloxacins” (Frontiers in Chemistry, 2022).
≈ marks a conversion by molar mass, not a printed value. Entries after “also recorded” stand apart in the source; their conditions may differ. Read-outs that look alike come from different tables or passages of the source.

How the values were obtained:
[1] = system: P. aeruginosa; assay: MIC and MBC determinations in vitro, P. aeruginosa; format: cell-based; details: P. aeruginosa clinical isolate; for MIC: 24 h culture; for MBC: solid medium 24 h
Experimental: (§1) The three strains of MRSA, P. aeruginosa, and E. coli used in this experiment were from clinical isolates, which were provided by the People’s Liberation Army 304 Hospital.
(§2) To evaluate the antibacterial activities of newly synthesized N (7) position modified fluoroquinolones, the minimum inhibitory (MIC) and bactericidal (MBC) concentrations of these compounds toward bacteria were measured.

[2] = system: A549; assay: Cell viability assay (MTS), A549; format: cell-based, human; details: A549
Experimental: (§3) To investigate the biocompatibility of the synthesized balofloxacin derivative, the cytoxicity of 2-e on human normal cells (3T3, L-02) and tumor cells (BEL-7402, H520, A549, and MCF-7) was studied. As an experimental example human liver cells (L-02) growing in the log phase, were plated in the 96-well plate at a density of 5000 cells/well. The cells were cultured at 37°C for 24 h under 5% CO2 medium. Then different concentrations of 1e and 2-e were added, the L-02 cells were cultured at 37°C for 48 h under a 5% CO2 atmosphere. Then the medium was aspirated, 100 μL of serum-free medium and 20 μL of MTS were added into each well, and L-02 was incubated at 37°C for 1 h under a 5% CO2 atmosphere. After that, the absorbance of the solutions at 490 nm was obtained using a microplate reader and calculated cell survival rate according to the following formula: Cell survive rate(%)=(ODtest−ODblank)/(ODcontrol−ODblank)×100%.

[3] = Cell viability assay (MTS), A549; format: cell-based, human; details: human, A549 tumor cells; A549, 100 μmol/L, 48 h
Experimental: as §3

[4] = system: E. coli; assay: MIC and MBC determinations in vitro, E. coli; format: cell-based; details: Escherichia coli, E. coli clinical isolate
Experimental: as §1, §2

[5] = system: MRSA, P. aeruginosa, and E. coli; assay: MIC and MBC values stated over the three strains together; format: cell-based; details: bound over MIC and MBC, converted to μmol/L; read-out: MIC and MBC
Experimental: as §1, §2

[6] = system: H520; assay: Cell viability assay (MTS), H520; format: cell-based, human; details: H520
Experimental: as §3

[7] = Cell viability assay (MTS), H520; format: cell-based, human; details: human, H520 tumor cells; H520, 100 μmol/L, 48 h
Experimental: as §3

[8] = system: MRSA; assay: MIC and MBC determinations in vitro, MRSA; format: cell-based; details: MRSA clinical isolate; for MIC: 24 h culture
Experimental: as §1, §2

[9] = system: MCF-7; assay: Cell viability assay (MTS), MCF-7; format: cell-based, human; details: MCF-7
Experimental: as §3

[10] = Cell viability assay (MTS), MCF-7; format: cell-based, human; details: human, MCF-7 tumor cells; MCF-7, 100 μmol/L, 48 h
Experimental: as §3

[11] = system: MRSA; assay: Time-dependent antibacterial effects in vitro; format: cell-based
Experimental: In order to further verify the antibacterial effect of the representative compound 2-e, time-dependent bactericidal activity of 2-e against MRSA was determined. This study referred to the reported methods ([Ling et al., 2015]). MRSA was cultured overnight in LB liquid and the bacterial solution at 10^9 CFU/ml tested on the machine was diluted at 1:10,000 with LB liquid medium and cultured at 37°C, 180 rpm. […] Time-dependent bacterial colonies were evaluated at 4 or 8 h intervals as follows: 100 μL of the mixture at the current time point was taken and centrifuged at 10,000 rpm for 2 min, and the pellet formed was dispersed with PBS, which was diluted by the ten-fold dilution method. 100 μL of bacterial dilution was evenly spread on LB solid medium at 37°C for 24 h. The colonies counted, according to national standards, accounted for the drug’s time-dependent antibacterial results. The same experimental operation was repeated three times independently.

[12] = system: L-02; assay: Cell viability assay (MTS), L-02; format: cell-based, human; details: L-02
Experimental: as §3

[13] = Cell viability assay (MTS), L-02; format: cell-based, human; details: human, L-02 cells (normal liver cells); L-02, 100 μmol/L, 48 h
Experimental: as §3

[14] = system: rabbit red cell suspension; assay: Hemolytic activity; format: cell-based
Experimental: (§4) The animal experiment was approved by the Laboratory Animal Management Committee/Laboratory Animal Welfare Ethics Committee, Institute of Radiation Medicine, Chinese Academy of Medical Sciences (No. IRM-DWLL-2019153). Hemolysis anemia is one of the major adverse reactions of antibiotics. To assess the blood compatibility of N (7) position modified balofloxacin, the hemolytic activity of 2-e was tested. Fresh rabbit blood, obtained from the ear vein of a male New Zealand white rabbit, was diluted at a ratio of 1:20 in volume with PBS, centrifuged and resuspended in PBS at 1,000 rpm for 5 min to form an experimental red cell suspension. 500 μL drug 2-e solution and equal volumes of blood suspension were mixed in which the final drug concentration was 500, 250, 125, 62.5, 31.25, 15.62, 7.81, 3.91, 1.95, and 0.98 μg/ml, respectively, these mixtures were incubated at 37°C for 24 h. The positive control group was an equal volume of diluted blood cells mixed with an equal volume of 0.5% Triton X-100. The negative control group was mixed with an equal volume of PBS and diluted blood cells. After incubation, the mixture in a series of centrifuge tubes was centrifuged under the same conditions, and 200 μL of the supernatant was aspirated and transferred to a 96-well plate. The release of hemoglobin from the main contents was measured at A405nm using a microplate reader (Thermo, Varioskan Flash 3001, United States). Each data were from the triplicate experiments. The percentage of hemolysis in the hemolysis test was calculated according to the following formula: %Hemolysis=(A405 test sample−A405 negative control)/(A405 positive control−A405 negative control).

[15] = Hemolytic activity; format: cell-based, rabbit; details: male, New Zealand white, rabbit, red cell suspension from rabbit blood; even at high concentrations (> 10^5 × MIC), 37°C, 24 h; read-out: hemolysis rate
Experimental: as §4

[16] = system: MRSA cells; assay: Cell wall damage monitored by atomic force microscopy (AFM); format: cell-based; details: 10 μM, 37°C, 30 min
Experimental: To observe the structural changes in the bacterial surface after the administration of balofloxacin derivative 2-e, atomic force microscope assay was performed. The bacterial suspension was diluted with LB liquid medium to 10^7 CFU/ml. The bacterial solution and the drug solution were mixed in an equal volume so that the concentration of 1e and 2-e was 10 μM in the final solution, respectively. And after mixing, it was incubated at 37°C for 30 min, together with the control group in the same way. After that, the sample was centrifuged at 9,000 rpm for 5 min and the supernatant was discarded, while the precipitate was washed twice with physiological saline in the same volume and centrifuged at 9,000 rpm for 5 min. Finally, the bacterial sample, prepared by dispersion in the same volume of physiological saline solution, was dropped onto the surface of the mica plate (about 0.5 cm^2), dried naturally at ambient temperature, and scanned by an atomic force microscope.

[17] = system: 3T3; assay: Cell viability assay (MTS), 3T3; format: cell-based; details: 3T3
Experimental: as §3

[18] = Cell viability assay (MTS), 3T3; format: cell-based; details: mouse, 3T3 cells; 3T3, 100 μmol/L, 48 h
Experimental: as §3

[19] = system: BEL-7402; assay: Cell viability assay (MTS), BEL-7402; format: cell-based, human; details: BEL-7402
Experimental: as §3

[20] = Cell viability assay (MTS), BEL-7402; format: cell-based, human; details: human, BEL-7402 tumor cells; BEL-7402, 100 μmol/L, 48 h
Experimental: as §3

`COc1c(N2CCCC(N(C)C(C)=O)C2)c(F)cc2c(=O)c(C(=O)O)cn(C3CC3)c12` (stereo not drawn) [Compound 2-e, 1-Cyclopropyl-6-fluoro-8-methoxy-7-(3-(N-methylacetamido)piperidin-1-yl)-4-oxo-1,4-dihydroquinoline-3-carboxylic acid] showed an MIC [1] of 0.039 µg/mL (≈ 0.0904 µM), an MBC [1] of 0.078 µg/mL (≈ 0.181 µM) and an MIC ([1]; Pseudomonas aeruginosa, read-out: MIC) of 0.039 µg/mL (≈ 0.0904 µM). For the same compound, the MBC ([1]; Pseudomonas aeruginosa, read-out: MBC) was 0.078 µg/mL (≈ 0.181 µM), the “toxicity toward cell line” value [2] was “low toxicity” and the viability at 48 h, 100 μmol/L [3] was ≥ 80%. The MIC ([4]; 24 h culture) was 2.5 µg/mL (≈ 5.79 µM), the MBC ([4]; solid medium 24 h) was 5 µg/mL (≈ 11.6 µM) and the MBC [5] was < 12 µM. The “toxicity toward cell line” value [6] was “low toxicity”, the viability at 48 h, 100 μmol/L [7] was ≥ 80% and the MIC [8] was 0.0195 µg/mL (≈ 0.0452 µM). For the same compound, the MIC ([8]; Staphylococcus aureus, MRSA, 24 h, read-out: MIC) was 0.0195 to 0.039 µg/mL (≈ 0.0452 to 0.0904 µM), the MBC ([8]; Staphylococcus aureus, MRSA, 24 h, solid medium 24 h, read-out: MBC) was 0.039 µg/mL (≈ 0.0904 µM) and the “toxicity toward cell line” value [9] was “low toxicity”. The viability at 48 h, 100 μmol/L [10] was ≥ 80%, the “antibacterial activity in early and late stages of the exponential growth phase” value ([11]; 10 × MIC, MRSA) was “good antibacterial activity” and the “time-dependent antibacterial effect, early logarithmic growth phase” value ([11]; MRSA) was “bactericidal effects occurred”. The “time-dependent antibacterial effect, late logarithmic growth phase” value ([11]; MRSA) was “bacterial inhibition occurred”, the “log10 CFU after the first 8 h” value ([11]; early exponential phase, start log10 CFU 5.5, 10 × MIC) was 0 and the “toxicity toward cell line” value [12] was “low toxicity; also recorded: did not show toxicity”. The viability at 48 h, 100 μmol/L [13] was ≥ 80%, the “hemolytic activity” value [14] was “not hemolytic” and the hemolysis at 24 h [15] was ≤ 5%. For the same compound, the “structural change of MRSA cells in AFM image” value [16] was “could effectively destroy the membrane and wall of MRSA cells; also recorded: complete discharge of their contents and substantial fragmentation”, the “toxicity toward cell line” value [17] was “low toxicity” and the viability at 48 h, 100 μmol/L [18] was ≥ 80%. For the same compound, the “toxicity toward cell line” value [19] was “low toxicity”, the viability at 48 h, 100 μmol/L [20] was ≥ 80% and the melting point was 201.6 to 202.3 °C.
